In patent US20230286970A1, “NOVEL OXADIAZOLE-BASED SELECTIVE HDAC6 INHIBITORS” (ITALFARMACO S.P.A., priority 2020, published 2023):

What was measured:
[1] = biological target: recombinant human HDAC6 (Homo sapiens (Human), UniProt Q9UBN7); test: Enzymatic screening, HDAC6 inhibition (fluorogenic FdL_G substrate); format: biochemical
Procedure, shortened: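 Enzyme was preincubated with compound (8 doses, triplicate, 1% DMSO) in 25 mM Tris-HCl pH 8, 130 mM NaCl, 0.05% Tween-20, 10% glycerol, with BSA. A FLUOR DE LYS-Green substrate was then added, and fluorescence was read after developer plus 2 μM TSA.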

[2] = biological target: recombinant human HDAC1 (Homo sapiens (Human), UniProt Q13547); test: Enzymatic screening, HDAC1 inhibition (fluorogenic FdL_G substrate); format: biochemical
Procedure, shortened: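 Recombinant human HDAC1 inhibition was measured fluorometrically using the FLUOR DE LYS-Green (FdL_G) substrate. Compounds at 8 doses (1% DMSO final) in Tris-HCl pH 8 buffer with NaCl, Tween-20 and glycerol were preincubated in triplicate with enzyme and 1 mg/mL BSA, then given substrate. Developer I plus 2 μM TSA was added, and fluorescence read after 25 minutes in the dark.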

[3] = Stability in rat plasma; settings: after 4 hours, 37° C.
Method: (§1) In order to evaluate the stability to circulating enzymes, test compounds were incubated in human and rat plasma at 37° C. in a thermostated oscillating bath. Each test compound was incubated at μM concentration (50 μM when the samples were analysed by UV/HPLC, 1 or 2 μM when the samples were analysed by LC-MS/MS) for 0, 15, 30 minutes and 1, 2 and 4 hours. The reaction was stopped placing samples on ice bath and adding acidified acetonitrile. After centrifugation (10 minutes at 14000 rpm) an aliquot of the supernatant was diluted with water, filtered with 0.45 μm regenerated cellulose syringe filters and injected in HPLC-UV or in LC-MS/MS. The percentage of the remaining amount at the various incubation times with respect to the initial amount were calculated. The half-life in plasma was also calculated.

[4] = Stability in human plasma; settings: after 4 hours, 37° C.
Method: as §1

[5] = Stability to Phase I metabolism in rat S9 liver fraction; settings: after 90 minutes, 37° C.
[6] = Stability to Phase I metabolism in human S9 liver fraction; settings: after 90 minutes, 37° C.

Chain of recombinant human HDAC1 (Q13547 whole entry): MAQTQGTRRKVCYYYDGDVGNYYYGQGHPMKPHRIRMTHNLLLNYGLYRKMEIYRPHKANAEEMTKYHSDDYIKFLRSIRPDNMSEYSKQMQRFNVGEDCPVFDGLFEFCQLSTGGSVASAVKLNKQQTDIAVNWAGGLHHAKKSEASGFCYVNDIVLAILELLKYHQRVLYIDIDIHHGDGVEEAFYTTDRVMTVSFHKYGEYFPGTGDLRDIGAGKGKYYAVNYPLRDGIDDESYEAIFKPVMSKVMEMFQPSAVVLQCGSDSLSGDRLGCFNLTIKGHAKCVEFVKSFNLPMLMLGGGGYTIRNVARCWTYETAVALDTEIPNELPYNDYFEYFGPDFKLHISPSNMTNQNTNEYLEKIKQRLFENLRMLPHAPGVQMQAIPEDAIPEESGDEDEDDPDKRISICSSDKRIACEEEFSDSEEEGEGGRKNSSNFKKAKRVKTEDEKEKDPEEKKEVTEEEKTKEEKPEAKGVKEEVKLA
Chain of recombinant human HDAC6 (Q9UBN7 whole entry): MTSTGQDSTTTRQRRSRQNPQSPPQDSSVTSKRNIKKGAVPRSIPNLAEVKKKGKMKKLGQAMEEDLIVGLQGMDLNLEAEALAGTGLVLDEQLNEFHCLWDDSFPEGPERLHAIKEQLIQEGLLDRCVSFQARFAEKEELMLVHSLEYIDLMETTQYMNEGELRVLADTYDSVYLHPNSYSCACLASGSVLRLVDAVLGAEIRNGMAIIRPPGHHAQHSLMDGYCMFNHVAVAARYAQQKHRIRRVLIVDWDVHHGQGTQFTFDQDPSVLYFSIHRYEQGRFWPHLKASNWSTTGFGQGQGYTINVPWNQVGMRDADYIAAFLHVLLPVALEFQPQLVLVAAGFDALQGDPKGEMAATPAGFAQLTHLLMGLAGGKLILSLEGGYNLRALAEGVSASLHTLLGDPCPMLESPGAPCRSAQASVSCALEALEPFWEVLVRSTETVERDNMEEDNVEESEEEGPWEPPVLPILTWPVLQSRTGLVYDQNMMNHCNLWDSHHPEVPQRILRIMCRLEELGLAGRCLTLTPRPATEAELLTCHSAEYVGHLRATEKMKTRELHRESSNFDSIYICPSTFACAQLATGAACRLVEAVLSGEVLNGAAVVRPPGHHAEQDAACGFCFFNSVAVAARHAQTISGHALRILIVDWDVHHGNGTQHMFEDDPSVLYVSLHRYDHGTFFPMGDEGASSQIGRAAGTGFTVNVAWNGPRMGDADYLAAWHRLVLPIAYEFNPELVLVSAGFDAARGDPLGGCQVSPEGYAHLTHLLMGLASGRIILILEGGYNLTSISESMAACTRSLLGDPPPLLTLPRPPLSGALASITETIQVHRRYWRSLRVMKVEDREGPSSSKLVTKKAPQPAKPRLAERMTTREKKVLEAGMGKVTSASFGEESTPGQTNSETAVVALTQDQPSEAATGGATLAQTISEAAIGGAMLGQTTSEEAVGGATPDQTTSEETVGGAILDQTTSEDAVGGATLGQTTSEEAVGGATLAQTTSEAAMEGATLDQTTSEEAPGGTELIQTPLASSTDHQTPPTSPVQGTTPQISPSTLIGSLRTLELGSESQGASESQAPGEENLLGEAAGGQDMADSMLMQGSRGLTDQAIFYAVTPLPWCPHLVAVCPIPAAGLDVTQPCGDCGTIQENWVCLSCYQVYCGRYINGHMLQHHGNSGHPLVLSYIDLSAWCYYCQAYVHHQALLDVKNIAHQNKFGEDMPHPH

Row | SMILES | IC50 [1] | IC50 [2] | residual percentage in RAT PLASMA [3] | residual percentage in HUMAN PLASMA [4] | residual percentage in RAT S9 FRACTION [5] | residual percentage in HUMAN S9 FRACTION [6]
1 | Cc1ncccc1-c1cn(Cc2c(F)cc(-c3nnc(C(F)F)o3)cc2F)nn1 [compound 105, 2-(3,5-difluoro-4-((4-(2-methylpyridin-3-yl)-1H-1,2,3-triazol-1-yl)methyl)phenyl)-5-(difluoromethyl)-1,3,4-oxadiazole] | 0.041 µM | > 200 µM | 81% | 84% | 71% | 99%
2 | COc1ccc(-c2nnn(Cc3ccc(-c4nnc(C(F)F)o4)cc3)n2)cc1OC [compound 128, 2-(difluoromethyl)-5-(4-((5-(3,4-dimethoxyphenyl)-2H-tetrazol-2-yl)methyl)phenyl)-1,3,4-oxadiazole] | 0.049 µM | > 200 µM | 83% | 96% | 13% | 30%
3 | CN1CCC(NC(=O)c2cccc(-c3nnn(Cc4ccc(-c5nnc(C(F)F)o5)cc4)n3)c2)CC1 [compound 80, 3-(2-(4-(5-(difluoromethyl)-1,3,4-oxadiazol-2-yl)benzyl)-2H-tetrazol-5-yl)-N-(1-methylpiperidin-4-yl)benzamide] | 0.033 µM | > 200 µM | 88% | 97% | 46% | 94%
4 | CN(C)C(=O)c1cccc(-c2nnn(Cc3ccc(-c4nnc(C(F)F)o4)cc3)n2)c1 [compound 81, 3-(2-(4-(5-(difluoromethyl)-1,3,4-oxadiazol-2-yl)benzyl)-2H-tetrazol-5-yl)-N,N-dimethylbenzamide] | 0.033 µM | > 200 µM | 87% | 87% | 14% | 78%
5 | FC(F)c1nnc(-c2ccc(Cn3cc(-c4ccc(NC5=NCCN5)cc4)cn3)nc2)o1 [compd. 270, N-(4-(1-((5-(5-(difluoromethyl)-1,3,4-oxadiazol-2-yl)pyridin-2-yl)methyl)-1H-pyrazol-4-yl)phenyl)-4,5-dihydro-1H-imidazol-2-amine] | 0.018 µM | > 200 µM | 78% | 89% | 79% | 93%
6 | CS(=O)(=O)NCCC(c1ccc(-c2nnc(C(F)F)o2)cc1)c1cn(-c2ccc(N)nc2)nn1 (stereo not drawn) [Compd. 62, N-{3-[1-(6-aminopyridin-3-yl)-1H-1,2,3-triazol-4-yl]-3-{4-[5-(difluoromethyl)-1,3,4-oxadiazol-2-yl]phenyl}propyl}methanesulfonamide] | 0.027 µM | > 200 µM | 69% | 88% | 86% | 95%
7 | Nc1ccc(-c2cn(Cc3cc(F)c(-c4nnc(C(F)F)o4)cc3F)nn2)cn1 [compound 39, 5-(1-(4-(5-(difluoromethyl)-1,3,4-oxadiazol-2-yl)-2,5-difluorobenzyl)-1H-1,2,3-triazol-4-yl)pyridin-2-amine] | 0.018 µM | > 200 µM | 71% | 83% | 96% | 100%
8 | CCCCC(c1ccc(-c2nnc(C(F)F)o2)cc1)n1cc(-c2ccc(N)nc2)nn1 (stereo not drawn) [compound 235, 5-(1-(1-(4-(5-(difluoromethyl)-1,3,4-oxadiazol-2-yl)phenyl)pentyl)-1H-1,2,3-triazol-4-yl)pyridin-2-amine] | 0.202 µM | > 200 µM | 84% | 90% | 63% | 92%
9 | CCNc1ccc(-c2nnn(Cc3ccc(-c4nnc(C(F)F)o4)cc3)n2)cn1 [compound 99, 5-(2-(4-(5-(difluoromethyl)-1,3,4-oxadiazol-2-yl)benzyl)-2H-tetrazol-5-yl)-N-ethylpyridin-2-amine] | 0.038 µM | > 200 µM | 93% | 86% | 18% | 52%
10 | FC(F)c1nnc(-c2ccc(Cn3nnc(-c4csc5ccccc45)n3)cc2)o1 [compound 207, 2-(4-((5-(benzo[b]thiophen-3-yl)-2H-tetrazol-2-yl)methyl)phenyl)-5-(difluoromethyl)-1,3,4-oxadiazole] | 0.129 µM | 999 µM | 70% | 91% | 0% | 72%
11 | O=C(c1cccc(-c2nnn(Cc3ccc(-c4nnc(C(F)F)o4)cn3)n2)c1)N1CCOCC1 [compound 69, (3-(2-((5-(5-(difluoromethyl)-1,3,4-oxadiazol-2-yl)pyridin-2-yl)methyl)-2H-tetrazol-5-yl)phenyl)(morpholino)methanone] | 0.03 µM | > 200 µM | 79% | 79% | 83% | 97%
12 | Fc1cc(-c2nnc(C(F)F)o2)cc(F)c1Cn1cc(-c2cnc3cccnn23)nn1 [compound 67, 2-(3,5-difluoro-4-((4-(imidazo[1,2-b]pyridazin-3-yl)-1H-1,2,3-triazol-1-yl)methyl)phenyl)-5-(difluoromethyl)-1,3,4-oxadiazole] | 0.029 µM | > 200 µM | 74% | 74% | 39% | 77%
13 | CCC[C@@H](c1ccc(-c2nnc(C(F)F)o2)cc1)n1cc(-c2ccc(N)nc2)nn1 [compound 250, (S)-5-(1-(1-(4-(5-(difluoromethyl)-1,3,4-oxadiazol-2-yl)phenyl)butyl)-1H-1,2,3-triazol-4-yl)pyridin-2-amine] | 0.293 µM | > 200 µM | 82% | 91% | 89% | 88%
14 | CC(=O)Nc1cccc(-c2cn(Cc3ccc(-c4nnc(C(F)F)o4)cn3)nn2)c1 [compound 37, N-(3-(1-((5-(5-(difluoromethyl)-1,3,4-oxadiazol-2-yl)pyridin-2-yl)methyl)-1H-1,2,3-triazol-4-yl)phenyl)acetamide] | 0.017 µM | > 200 µM | 83% | 90% | 78% | 71%
15 | O=C1NCc2ccc(-c3cn(Cc4ccc(-c5nnc(C(F)F)o5)cc4)nn3)cc21 [compound 109, 6-(1-(4-(5-(difluoromethyl)-1,3,4-oxadiazol-2-yl)benzyl)-1H-1,2,3-triazol-4-yl)isoindolin-1-one] | 0.042 µM | > 200 µM | 78% | 89% | 87% | 82%
